Source: patent US8440628B2, “Medical compositions containing ghrelin” (Daiichi Sankyo Company, Limited, priority 2002, dated 2013)

Assay: Stability of human ghrelin in 0.1M HCl and Mcllvain buffer solutions of various pH at 25°C (Example 2, HPLC peak area ratio)
Assay type: physicochemical
Experimental: Human ghrelin was dissolved in the following aqueous solutions in the concentration of about 0.15 μmol/mL (0.5 mg/mL).
0.1M HCl aqueous solution (pH: 1.1)
The pH was adjusted with 0.1M citric aqueous acid and 0.2M dibasic sodium phosphate aqueous solution.
Each solution were stored at 25±2° C. for 8, 24, 48 and 72 hours respectively, and the obtained solutions were detected by HPLC analysis in comparison to the solutions before storage. […] No significant changes of pH in solution before storage and after storage were observed.

[1] = human ghrelin 0.5 mg/mL in 0.1M HCl aqueous solution, pH 1, 25±2°C, 8 hr. after
[2] = human ghrelin 0.5 mg/mL in 0.1M HCl aqueous solution, pH 1, 25±2°C, 24 hr. after
[3] = human ghrelin 0.5 mg/mL in 0.1M HCl aqueous solution, pH 1, 25±2°C, 48 hr. after
[4] = human ghrelin 0.5 mg/mL in 0.1M HCl aqueous solution, pH 1, 25±2°C, 72 hr. after
[5] = human ghrelin 0.5 mg/mL in 0.1M HCl aqueous solution, pH 1, 25±2°C, before storage
[6] = human ghrelin 0.5 mg/mL in Mcllvain buffer, pH 2, 25±2°C, 8 hr. after
[7] = human ghrelin 0.5 mg/mL in Mcllvain buffer, pH 2, 25±2°C, 24 hr. after
[8] = human ghrelin 0.5 mg/mL in Mcllvain buffer, pH 2, 25±2°C, 48 hr. after
[9] = human ghrelin 0.5 mg/mL in Mcllvain buffer, pH 2, 25±2°C, 72 hr. after
[10] = human ghrelin 0.5 mg/mL in Mcllvain buffer, pH 2, 25±2°C, before storage
[11] = human ghrelin 0.5 mg/mL in Mcllvain buffer, pH 3, 25±2°C, 8 hr. after
[12] = human ghrelin 0.5 mg/mL in Mcllvain buffer, pH 3, 25±2°C, 24 hr. after
[13] = human ghrelin 0.5 mg/mL in Mcllvain buffer, pH 3, 25±2°C, 48 hr. after
[14] = human ghrelin 0.5 mg/mL in Mcllvain buffer, pH 3, 25±2°C, 72 hr. after
[15] = human ghrelin 0.5 mg/mL in Mcllvain buffer, pH 3, 25±2°C, before storage
[16] = human ghrelin 0.5 mg/mL in Mcllvain buffer, pH 4, 25±2°C, 8 hr. after
[17] = human ghrelin 0.5 mg/mL in Mcllvain buffer, pH 4, 25±2°C, 24 hr. after
[18] = human ghrelin 0.5 mg/mL in Mcllvain buffer, pH 4, 25±2°C, 48 hr. after
[19] = human ghrelin 0.5 mg/mL in Mcllvain buffer, pH 4, 25±2°C, 72 hr. after
[20] = human ghrelin 0.5 mg/mL in Mcllvain buffer, pH 4, 25±2°C, before storage
[21] = human ghrelin 0.5 mg/mL in Mcllvain buffer, pH 5, 25±2°C, 8 hr. after
[22] = human ghrelin 0.5 mg/mL in Mcllvain buffer, pH 5, 25±2°C, 24 hr. after
[23] = human ghrelin 0.5 mg/mL in Mcllvain buffer, pH 5, 25±2°C, 48 hr. after
[24] = human ghrelin 0.5 mg/mL in Mcllvain buffer, pH 5, 25±2°C, 72 hr. after
[25] = human ghrelin 0.5 mg/mL in Mcllvain buffer, pH 5, 25±2°C, before storage
[26] = human ghrelin 0.5 mg/mL in Mcllvain buffer, pH 6, 25±2°C, 8 hr. after
[27] = human ghrelin 0.5 mg/mL in Mcllvain buffer, pH 6, 25±2°C, 24 hr. after
[28] = human ghrelin 0.5 mg/mL in Mcllvain buffer, pH 6, 25±2°C, 48 hr. after

CCCCCCCC(=O)OC[C@H](NC(=O)[C@H](CO)NC(=O)CN)C(=O)N[C@@H](Cc1ccccc1)C(=O)N[C@@H](CC(C)C)C(=O)N[C@@H](CO)C(=O)N1CCC[C@H]1C(=O)N[C@@H](CCC(=O)O)C(=O)N[C@@H](Cc1c[nH]cn1)C(=O)N[C@@H](CCC(N)=O)C(=O)N[C@@H](CCCNC(=N)N)C(=O)N[C@H](C(=O)N[C@@H](CCC(N)=O)C(=O)N[C@@H](CCC(N)=O)C(=O)N[C@@H](CCCNC(=N)N)C(=O)N[C@@H](CCCCN)C(=O)N[C@@H](CCC(=O)O)C(=O)N[C@@H](CO)C(=O)N[C@@H](CCCCN)C(=O)N[C@@H](CCCCN)C(=O)N1CCC[C@H]1C(=O)N1CCC[C@H]1C(=O)N[C@@H](C)C(=O)N[C@@H](CCCCN)C(=O)N[C@@H](CC(C)C)C(=O)N[C@@H](CCC(N)=O)C(=O)N1CCC[C@H]1C(=O)N[C@@H](CCCNC(=N)N)C(=O)O)C(C)C [Human ghrelin]
Peak area ratio to total peak area [1]: 94.40%
pH observed [1]: 1.2
Peak area ratio to total peak area [2]: 86.00%
pH observed [2]: 1.2
Peak area ratio to total peak area [3]: 74.62%
pH observed [3]: 1.2
Peak area ratio to total peak area [4]: 65.04%
pH observed [4]: 1.2
Peak area ratio to total peak area [5]: 98.89%
pH observed [5]: 1.1
Peak area ratio to total peak area [6]: 98.82%
pH observed [6]: 2.0
Peak area ratio to total peak area [7]: 98.24%
pH observed [7]: 2.0
Peak area ratio to total peak area [8]: 97.35%
pH observed [8]: 2.0
Peak area ratio to total peak area (human ghrelin 0.5 mg/mL in Mcllvain buffer, pH 2, 25±2°C, 48 hr. after, listed as human ghrelin): less than 98%
Peak area ratio to total peak area [9]: 96.46%
pH observed [9]: 2.0
Peak area ratio to total peak area [10]: 99.07%
pH observed [10]: 2.0
Peak area ratio to total peak area [11]: 98.98%
pH observed [11]: 3.1
Peak area ratio to total peak area [12]: 98.77%
pH observed [12]: 3.1
Peak area ratio to total peak area [13]: 98.40%
pH observed [13]: 3.1
Peak area ratio to total peak area [14]: 98.03%
pH observed [14]: 3.1
Peak area ratio to total peak area [15]: 99.07%
pH observed [15]: 3.0
Peak area ratio to total peak area [16]: 99.07%
pH observed [16]: 4.0
Peak area ratio to total peak area [17]: 98.92%
pH observed [17]: 4.0
Peak area ratio to total peak area [18]: 98.69%
pH observed [18]: 4.0
Peak area ratio to total peak area [19]: 98.44%
pH observed [19]: 4.0
Peak area ratio to total peak area [20]: 99.07%
pH observed [20]: 4.0
Peak area ratio to total peak area [21]: 99.04%
pH observed [21]: 5.0
Peak area ratio to total peak area [22]: 98.91%
pH observed [22]: 5.0
Peak area ratio to total peak area [23]: 98.59%
pH observed [23]: 5.0
Peak area ratio to total peak area [24]: 98.37%
pH observed [24]: 5.0
Peak area ratio to total peak area [25]: 99.06%
pH observed [25]: 5.0
Peak area ratio to total peak area [26]: 98.87%
pH observed [26]: 6.0
Peak area ratio to total peak area [27]: 98.28%
pH observed [27]: 6.0
Peak area ratio to total peak area [28]: 97.64%
pH observed [28]: 6.0
